Source: patent US6969712B2, “Benzimidazole derivatives” (Banyu Pharmaceutical Co., Ltd., priority 2000, dated 2005)
Structures can show the parent of a compound that is named as a salt.

Assays:
nociceptin receptor ORL1 [1] = biological target: T1, nociceptin receptor ORL1 (Homo sapiens, UniProt P41146); assay: Nociceptin receptor binding inhibition assay; details: inhibition of 50 pM [125I]Tyr14-Nociceptin binding to CHO/ORL1 cell membrane, SPA beads, 37° C., 60 minutes; read-out: IC50 value, nociceptin receptor binding inhibition action
T1 construct: expressed in transfected cells
Description: cDNA which codes a human nociceptin receptor gene (accession No.X77130) was cloned into an expression vector pCR3 (Invitrogen) to prepare pCR3/ORL1. Next, pCR3/ORL1 was transfected in CHO cells using a transfectam (Nippongene) following the directions in the manual appended to the reagent to obtain a stable expression strain (CHO/ORL1 cells) having resistance against 1 mg/ml concentration G418. A membrane fraction (a precipitate fraction obtained by an hour's centrifuge at 100,000 G of the supernatant resulting from 15 minutes' certrifuge at 10,000 G) was prepared from this stable expression strain to carry out a receptor binding assay.
Eleven (11) μg of the membrane, 50 pM [^125I] Tyr^14-Nociceptin (Amersham Pharmacia Biotech) (specific activity 2000 Ci/mmol), 1 mg Wheatgerm agglutinin SPA beads (PVT based; Amersham Pharmacia Biotech) and a test compound were suspended in an NC buffer (50 mM Hepes, 10 mM sodium chloride, 1 mM magnesium chloride, 2.5 mM calcium chloride, 0.1% BSA, 0.025% bacitracin, pH 7.4) and incubated at 37° C. for 60 minutes, and then the radioactivity was determined with Top Count (Packard). The binding activity to the nociceptin receptor was expressed by the 50% inhibition concentration (IC50 value) which was calculated from the inhibition activity to binding to ORL1 receptor of [^125I] Tyr^14-Nociceptin by the compounds of the present invention at various concentrations.

nociceptin receptor ORL1 [2] = biological target: T1, nociceptin receptor ORL1; assay: Antagonism against nociceptin-elicited G protein activation (GTPγ[35S] binding); type: biochemical; details: GTPγ[35S] binding inhibition, CHO/ORL1 cell membrane, 50 nM nociceptin, 25° C., 150 minutes
Description: CHO cells which stably expressed a nociceptin receptor ORL1 were used to investigate the action of tested compounds against nociceptin-elicited G protein activation. A membrane prepared from the CHO/ORL1 cell, 50 nM nociceptin, 200 pM GTPγ[^35S](NEN), 1.5 mg Wheatgerm agglutinin SPA beads (PVT based; Amersham Pharmacia Biotech) and each of the tested compounds were mixed in a GDP buffer (20 mM Hepes, 100 mM sodium chloride, 10 mM magnesium chloride, 1 mM EDTA, 5 μM GDP, pH 7.4) and incubated at 25° C. for 150 minutes, and then the radioactivity was determined. The antagonism against nociceptin-elicited G protein activation was shown by the 50% inhibition concentration (IC50 value) which was calculated from GTP γ [^35S] binding inhibition activity of the compounds of the present invention at various concentrations. From the result it can be understood that the compounds of the invention have antagonism against nociceptin-elicited G protein activation via ORL1 receptor.

T1 sequence (P41146 whole entry): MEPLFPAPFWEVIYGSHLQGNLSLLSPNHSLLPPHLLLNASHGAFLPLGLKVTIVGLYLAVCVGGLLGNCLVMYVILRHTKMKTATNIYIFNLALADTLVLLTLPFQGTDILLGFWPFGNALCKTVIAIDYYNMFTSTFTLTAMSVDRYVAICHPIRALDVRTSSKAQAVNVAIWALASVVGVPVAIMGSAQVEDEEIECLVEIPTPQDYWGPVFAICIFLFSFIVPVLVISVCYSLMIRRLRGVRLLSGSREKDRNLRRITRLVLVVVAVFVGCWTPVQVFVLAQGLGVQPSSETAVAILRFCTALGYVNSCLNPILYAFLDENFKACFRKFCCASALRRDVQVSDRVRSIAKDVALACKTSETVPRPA

SMILES | IC50 (nociceptin receptor ORL1 [1]) [nM] | IC50 (nociceptin receptor ORL1 [2]) [nM]
CCC(CC)Sc1nc2cc(Cl)c(N3CCNCC3)cc2[nH]1 [Example 1, 5-chloro-2-[(1-ethylpropyl)sulfanyl]-6-(piperazin-1-yl) benzimidazole dihydrochloride] | 2.1 | 9.1
CC(CC(C)(C)C)Sc1nc2cc(N3CCNCC3)c(Cl)cc2[nH]1 (centres unmarked) [Example 26, 5-chloro-6-(piperazin-1-yl)-2-[(1,3,3-trimethylbutyl)-sulfanyl]benzimidazole dihydrochloride] | 1.3 | 5.3
CCC(CC)Sc1nc2cc(Cl)c(N3CCN(CCO)CC3)cc2[nH]1 [Example 89, 5-chloro-2-[(1-ethylpropyl)sulfanyl]-6-[4-(2-hydroxyethyl)piperazin-1-yl]benzimidazole dihydrochloride] | 6.5 | 6.8
CC(C)(CN1CCOCC1)Sc1nc2cc(N3CCN(CCO)CC3)c(Cl)cc2[nH]1 [Example 101, 5-chloro-2-[(1,1-dimethyl-2-morpholinoethyl)sulfanyl]-6-[4-(2-hydroxyethyl)piperazin-1-yl]benzimidazole trihydrochloride] | 9.2 | 8
Clc1cc2[nH]c(SCC3CCCCC3)nc2cc1N1CCN(CC2CC2)CC1 [Example 102, 5-chloro-2-[(cyclohexylmethyl)sulfanyl]-6-[4-(cyclopropylmethyl)piperazin-1-yl]benzimidazole] | 3.5 | –
CC1(Sc2nc3c(F)c(N4CCN(CCO)CC4)c(Cl)cc3[nH]2)CCCC1 [Example 142, 5-chloro-7-fluoro-6-[4-(2-hydroxyethyl)piperazin-1-yl]-2-[(1-methylcyclopentyl)sulfanyl]benzimidazole] | 0.95 | 0.57
CCC(CC)COc1nc2cc(N3CCNCC3)c(Cl)cc2[nH]1 [Referential Example 1, 5-chloro-2-[(2-ethylbutyl)oxy]-6-(piperazin-1-yl)benzimidazole dihydrochloride] | 7 | 180
CCCC(CC)Nc1nc2cc(N3CCNCC3)c(Cl)cc2[nH]1 (centres unmarked) [Referential Example 13, 5-chloro-2-[(1-ethylbutyl)amino]-6-(piperazin-1-yl)-benzimidazole dihydrochloride] | 430 | –
